Assay results reported in publication doi:10.1101/2025.05.12.653380v2 (biorxiv, 2026).

Molecular target: T1, HPC (helicase-primase complex) of HHV1, UL5-UL52-UL8 (Human alphaherpesvirus 1 strain 17, UniProt P10189+P10236)
T1 sequence (P10189 1-882): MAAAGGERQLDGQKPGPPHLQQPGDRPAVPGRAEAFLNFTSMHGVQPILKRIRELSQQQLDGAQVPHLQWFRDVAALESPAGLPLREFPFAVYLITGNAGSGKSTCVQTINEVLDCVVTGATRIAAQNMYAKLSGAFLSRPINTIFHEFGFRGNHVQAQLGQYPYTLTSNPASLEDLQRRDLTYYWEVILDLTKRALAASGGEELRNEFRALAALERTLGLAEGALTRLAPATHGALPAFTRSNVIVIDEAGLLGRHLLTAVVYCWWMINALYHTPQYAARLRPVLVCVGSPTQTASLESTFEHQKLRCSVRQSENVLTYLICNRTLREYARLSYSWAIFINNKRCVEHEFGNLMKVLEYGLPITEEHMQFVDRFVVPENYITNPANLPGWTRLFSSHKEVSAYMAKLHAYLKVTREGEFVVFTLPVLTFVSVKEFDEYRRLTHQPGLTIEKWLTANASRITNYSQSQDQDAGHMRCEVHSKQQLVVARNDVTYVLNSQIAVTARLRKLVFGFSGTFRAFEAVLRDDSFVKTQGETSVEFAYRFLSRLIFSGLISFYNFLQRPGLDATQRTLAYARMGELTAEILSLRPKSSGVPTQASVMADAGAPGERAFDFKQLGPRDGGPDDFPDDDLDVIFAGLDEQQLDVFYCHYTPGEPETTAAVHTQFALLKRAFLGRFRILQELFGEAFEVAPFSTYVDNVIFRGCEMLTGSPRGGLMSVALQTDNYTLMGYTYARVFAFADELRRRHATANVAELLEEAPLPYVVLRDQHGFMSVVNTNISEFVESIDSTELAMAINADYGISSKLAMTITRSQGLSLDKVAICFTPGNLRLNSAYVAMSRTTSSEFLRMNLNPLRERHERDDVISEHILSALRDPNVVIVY
T1 sequence (P10236 1-1058): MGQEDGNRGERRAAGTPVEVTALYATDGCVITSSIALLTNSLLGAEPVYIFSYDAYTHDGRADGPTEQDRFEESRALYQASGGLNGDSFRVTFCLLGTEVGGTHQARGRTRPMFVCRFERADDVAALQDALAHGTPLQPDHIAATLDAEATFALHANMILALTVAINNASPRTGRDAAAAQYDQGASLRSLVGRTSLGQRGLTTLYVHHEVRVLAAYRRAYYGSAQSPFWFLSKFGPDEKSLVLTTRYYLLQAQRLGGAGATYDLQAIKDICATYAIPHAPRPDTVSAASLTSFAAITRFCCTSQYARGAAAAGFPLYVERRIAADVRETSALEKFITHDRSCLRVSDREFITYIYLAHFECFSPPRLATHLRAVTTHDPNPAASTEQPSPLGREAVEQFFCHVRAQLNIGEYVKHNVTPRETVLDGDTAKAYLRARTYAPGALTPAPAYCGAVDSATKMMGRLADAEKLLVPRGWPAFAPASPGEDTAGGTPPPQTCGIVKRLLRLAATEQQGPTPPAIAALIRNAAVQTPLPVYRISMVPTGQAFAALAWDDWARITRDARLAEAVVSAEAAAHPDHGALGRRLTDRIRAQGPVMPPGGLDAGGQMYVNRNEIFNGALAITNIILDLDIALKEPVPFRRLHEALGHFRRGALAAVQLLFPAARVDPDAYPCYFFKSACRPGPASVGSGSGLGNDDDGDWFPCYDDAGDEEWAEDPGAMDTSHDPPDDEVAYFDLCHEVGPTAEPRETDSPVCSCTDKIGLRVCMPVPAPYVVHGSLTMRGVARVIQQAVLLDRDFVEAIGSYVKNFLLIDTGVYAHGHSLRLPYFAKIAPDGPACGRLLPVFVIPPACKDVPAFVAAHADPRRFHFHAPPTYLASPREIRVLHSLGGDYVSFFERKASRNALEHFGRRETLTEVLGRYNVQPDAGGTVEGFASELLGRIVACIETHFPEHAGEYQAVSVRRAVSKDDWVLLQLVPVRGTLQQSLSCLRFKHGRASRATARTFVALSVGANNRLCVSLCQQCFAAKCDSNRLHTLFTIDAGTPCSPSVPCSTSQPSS
T1 sequence (P10192 1-750 partner): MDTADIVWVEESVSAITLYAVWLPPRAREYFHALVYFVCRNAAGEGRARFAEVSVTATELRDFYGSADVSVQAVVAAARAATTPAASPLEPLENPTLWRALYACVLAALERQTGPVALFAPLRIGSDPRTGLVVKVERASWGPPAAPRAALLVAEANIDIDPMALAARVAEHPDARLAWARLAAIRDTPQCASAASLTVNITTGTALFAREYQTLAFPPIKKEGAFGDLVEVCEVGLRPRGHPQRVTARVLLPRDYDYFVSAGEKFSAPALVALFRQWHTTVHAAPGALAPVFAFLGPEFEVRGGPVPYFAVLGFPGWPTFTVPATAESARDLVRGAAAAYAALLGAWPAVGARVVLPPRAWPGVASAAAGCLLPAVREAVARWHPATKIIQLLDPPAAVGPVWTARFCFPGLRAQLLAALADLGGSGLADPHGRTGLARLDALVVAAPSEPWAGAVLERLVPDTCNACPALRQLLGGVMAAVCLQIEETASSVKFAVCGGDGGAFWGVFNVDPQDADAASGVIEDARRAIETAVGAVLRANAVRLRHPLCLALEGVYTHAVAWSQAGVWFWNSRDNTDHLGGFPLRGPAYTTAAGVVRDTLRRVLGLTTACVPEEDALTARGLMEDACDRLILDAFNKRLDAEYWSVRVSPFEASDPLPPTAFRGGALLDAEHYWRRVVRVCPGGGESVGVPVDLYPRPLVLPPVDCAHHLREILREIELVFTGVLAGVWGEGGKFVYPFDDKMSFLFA
Experiment: NADH-coupled ATPase assay, Morrison fit of Kiapp, mixed inhibition model
Assay type: biochemical

Cc1cccc(C)c1N(CC(=O)Nc1ccc(-c2ncon2)cc1)C(=O)C1CCS(=O)(=O)CC1 [amenamevir]
Ki: 1.84 ± 0.16 nM

Cc1nc(N(C)C(=O)Cc2ccc(-c3ccccn3)cc2)sc1S(N)(=O)=O [pritelivir]
Ki: 1.99 ± 0.18 nM
